The term pKi denotes the negative decadic logarithm of the Ki, by convention in mol/L. Low readings indicate a high Ki, high ones a low Ki.

pKi: −log10 of the molar value.

The results in this text go back to BindingDB's records for doi:10.1016/j.bmcl.2007.02.049 (Gnf, 2007).

The target in the experiment is Cathepsin S (Homo sapiens, UniProt P25774). In words: Enzyme Inhibition Assay. As to conditions: pH 5.5; 37 °C. The procedure:
The recombinant human cathepsin enzyme was preincubated with inhibitor for 20 minutes prior to addition of substrate. The substrate hydrolysis was monitored by the increase in fluorescence at an excitation wavelength of 380nm and an emission wavelength of 450 nm on a Gemini EM fluorometer. The reaction progress curve was fitted to the Morrison equation using PlateKi (BioKin) and the apparent inhibition constant was converted to the inhibition constant (Ki) for competitive inhibitors.

Cathepsin S, sequence (P25774 whole entry): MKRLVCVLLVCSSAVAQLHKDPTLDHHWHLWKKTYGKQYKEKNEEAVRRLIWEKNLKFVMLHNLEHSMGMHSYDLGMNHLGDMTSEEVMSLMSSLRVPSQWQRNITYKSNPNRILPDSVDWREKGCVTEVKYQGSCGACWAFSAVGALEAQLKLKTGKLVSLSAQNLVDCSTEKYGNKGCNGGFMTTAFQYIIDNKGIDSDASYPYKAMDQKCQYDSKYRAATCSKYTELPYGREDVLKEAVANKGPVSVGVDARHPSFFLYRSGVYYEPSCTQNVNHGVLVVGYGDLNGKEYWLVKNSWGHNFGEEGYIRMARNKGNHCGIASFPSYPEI

Consider `O=C(N[C@@H](CCc1ccccc1)CNc1ccc(OC(F)(F)F)cc1)[C@H](CCC1CCCC1)CC(=O)N1CCOCC1` [(2R)-2-(2-cyclopentylethyl)-4-(morpholin-4-yl)-4-oxo-N-[(2S)-4-phenyl-1-{[4-(trifluoromethoxy)phenyl]amino}butan-2-yl]butanamide], for which the pKi is 7.70.
